pIC50: −log10 of the molar value.
Target: T1, Zcchc11 enzyme (Homo sapiens, UniProt Q5TAX3)
T1 construct: made in house; host or cells: HEK293 cells (Zcchc11); E. coli Rosetta II (LIN28A)
T1 sequence (Q5TAX3 212-1420): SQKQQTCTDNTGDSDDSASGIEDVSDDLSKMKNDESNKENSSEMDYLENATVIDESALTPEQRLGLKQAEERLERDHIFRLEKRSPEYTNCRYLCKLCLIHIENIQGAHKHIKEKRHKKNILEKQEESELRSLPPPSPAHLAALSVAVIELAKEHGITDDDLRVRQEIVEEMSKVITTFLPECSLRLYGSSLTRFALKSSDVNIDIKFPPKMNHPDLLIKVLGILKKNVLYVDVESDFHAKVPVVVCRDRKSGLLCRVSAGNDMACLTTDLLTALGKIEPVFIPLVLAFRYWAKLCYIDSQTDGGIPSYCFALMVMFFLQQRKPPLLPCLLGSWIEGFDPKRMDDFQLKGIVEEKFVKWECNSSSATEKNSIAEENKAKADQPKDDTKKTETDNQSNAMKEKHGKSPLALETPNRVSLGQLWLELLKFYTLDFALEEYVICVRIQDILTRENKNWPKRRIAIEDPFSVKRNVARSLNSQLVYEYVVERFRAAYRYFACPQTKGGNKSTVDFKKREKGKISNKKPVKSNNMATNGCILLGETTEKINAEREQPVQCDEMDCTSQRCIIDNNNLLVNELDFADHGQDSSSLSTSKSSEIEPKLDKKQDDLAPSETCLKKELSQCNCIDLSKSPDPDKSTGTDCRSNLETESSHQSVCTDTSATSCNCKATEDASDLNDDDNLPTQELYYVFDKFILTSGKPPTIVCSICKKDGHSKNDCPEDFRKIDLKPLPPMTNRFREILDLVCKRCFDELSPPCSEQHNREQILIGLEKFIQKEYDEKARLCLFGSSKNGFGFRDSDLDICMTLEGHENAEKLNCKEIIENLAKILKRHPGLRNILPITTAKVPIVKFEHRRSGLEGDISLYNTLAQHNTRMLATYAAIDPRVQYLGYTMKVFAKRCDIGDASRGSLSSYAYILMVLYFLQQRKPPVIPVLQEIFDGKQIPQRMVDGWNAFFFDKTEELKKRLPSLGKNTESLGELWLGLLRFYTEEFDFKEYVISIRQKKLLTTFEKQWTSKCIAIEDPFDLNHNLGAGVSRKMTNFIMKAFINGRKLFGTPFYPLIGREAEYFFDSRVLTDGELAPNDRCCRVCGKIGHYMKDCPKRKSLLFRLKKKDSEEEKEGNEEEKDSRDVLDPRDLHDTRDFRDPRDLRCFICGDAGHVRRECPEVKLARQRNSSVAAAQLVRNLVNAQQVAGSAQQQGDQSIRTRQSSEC
Assay: TUTase assay (Zcchc11 assay, Lin28a-dependent polyuridylation of pre-let-7)
Type: biochemical
Settings: Lin28a-dependent Zcchc11 (Z11) TUTase activity; read-out: Potency Lin28a-dep Z11 IC50
Experimental: The purpose of the Zcchc11 assay is to determine compound potency against Zcchc11 enzyme through the measurement of IC50. Compound inhibition is measured as a function of polyuridine tails added to RNA substrates in the presence of active TUTase, UTP, and inhibitor. The Zcchc11 assay was done in a black, non-binding, 384 well plate (Corning #3575). All steps were performed at room temperature. For a typical assay, a 29 ul aliquot of assay buffer (50 mM HEPES pH 7.3, 150 mM KCl, 5 mM MgCl2, 10 mM DTT, 0.01% Triton X-100, 40 U/ml RNAsin (Promega)) containing LIN28A protein (final concentration: 10 nM) is added to each well. Next, 1 ul of compound in 100% DMSO is transferred from a compound dilution plate in which the compound is serially diluted. Next, 10 ul of a 5× mix of Zcchc11 and RNA substrate (5′-fluorescein labeled pre-let-7 miRNA (Dharmacon)) is added (final concentrations: 0.2 nM and 2 nM, respectively). The plate is placed on a plate shaker for 30 seconds to produce mixing, then incubated for 30 minutes. Next, 10 ul of a 5× mix of UTP and the quenching probe (3′-rhodamine labeled A20, polyadenosine nucleotide, (IDT)) is added (final concentrations: 5 uM and 4 nM, respectively). The plate is immediately placed in a Biotek Cytation 5 plate reader, and the time-dependent decrease in fluorescein fluorescence resulting from annealing of the A20 probe to polyuridine tails is recorded, using the kinetics mode of the reader. Reaction rates are obtained using linear fits to the early portion of progress curves. IC50 values are calculated using a four parameter fit with 100% enzyme activity determined from the DMSO control and 0% activity from control samples lacking UTP.
The LIN28A protein was expressed in and purified from E. coli, strain Rosetta II (Novagen). The entire coding sequence of the human, wild-type protein was cloned into expression vector pMAL (NEB), down-stream from a maltose-binding protein tag. The linker sequence contained a TEV protease cleavage site. The protein was purified from bacterial extracts using an MBP-Trap column (GE Healthcare Life Sciences), followed by tag cleavage and removal of the tag by ion-exchange chromatography. When necessary, contaminating bacterial RNA was removed using the procedure describe by Faehnle C R. et al. (2017) Multi-domain utilization by TUT4 and TUT7 in control of let-7 biogenesis. Nat Struct Mol Biol, 24:658-665.
The Zcchc11 protein was expressed in and purified from HEK293 cells. A truncated protein comprising residues 212-1420 of the human sequence was cloned into expression vector pTT5 (Viva Biotech) down-stream from a maltose-binding protein tag. The linker sequence contained a TEV protease cleavage site, and a FLAG tag was added to the carboxyl terminus of the protein. The protein was purified from cell extracts using an MBP-Trap column (GE Healthcare Life Sciences), followed by tag cleavage and further enrichment of the full length construct using anti-FLAG affinity media (Sigma Aldrich).
“+” represents an IC50 value that is greater than 50 μM; “++” represents an IC50 value that is greater than 10 μM and equal to or less than 50 μM; “+++” represents an IC50 value that is greater than 1 μM and equal to or less than 10 μM; and “++++” represents an IC50 value that is equal to or less than 1 μM.

pIC50	SMILES
5.00 to 6.00	O=C(O)c1cn(-c2cnccn2)c2nc(N3CCC[C@@H]3COc3nnccc3Cl)c(Cl)cc2c1=O (racemic) [Compound 193, rac-(R)-6-chloro-7-(2-(((4-chloro-pyridazin-3-yl)oxy)methyl)pyrrolidin-1-yl)-4-oxo-1-(pyrazin-2-yl)-1,4-dihydro-1,8-naphthyridine-3-carboxylic acid]
≥ 6.00	N#Cc1cc2c(=O)c(C(=O)O)cn(-c3cnc(N4CCC4)cn3)c2nc1N1CCC[C@@H]1COc1ncccc1F (racemic) [Compound 194, rac-(R)-1-(5-(azetidin-1-yl)pyrazin-2-yl)-6-cyano-7-(2-(((3-fluoropyridin-2-yl)oxy)methyl)pyrrolidin-1-yl)-4-oxo-1,4-dihydro-1,8-naphthyridine-3-carboxylic acid]
≥ 6.00	CN(C)C(=O)OC[C@H]1CCCN1c1cc2c(cc1Cl)c(=O)c(C(=O)O)cn2-c1ccc(N2CC(N(C)C)C2)nc1 (racemic) [Compound 195, rac-(R)-6-chloro-1-(6-(3-(dimethyl-amino)azetidin-1-yl)pyridin-3-yl)-7-(2-(((dimethylcarbamoyl)oxy)methyl)pyrrolidin-1-yl)-4-oxo-1,4-dihydro-quinoline-3-carboxylic acid formic acid]
≥ 6.00	COc1ccc(Cl)c(OC[C@H]2CC(C3CCC3)CN2c2cc3c(cc2Cl)c(=O)c(C(=O)O)cn3-c2ccc(N3CC(N(C)C)C3)nc2)n1 (mixture of isomers) [Compound 203, rac-6-chloro-7-((2R)-2-(((3-chloro-6-methoxy-pyridin-2-yl)oxy)methyl)-4-cyclobutyl-pyrrolidin-1-yl)-1-(6-(3-(dimethyl-amino)azetidin-1-yl)pyridin-3-yl)-4-oxo-1,4-dihydro-quinoline-3-carboxylic acid]
≥ 6.00	CN(C)C1CN(c2ccc(-n3cc(C(=O)O)c(=O)c4cc(Cl)c(N5CC(C6CCC6)C[C@@H]5COc5ncccc5Cl)cc43)cn2)C1 (mixture of isomers) [Compound 205, rac-6-chloro-7-((2R)-2-((3-chloropyridin-2-yl)oxy)methyl)-4-cyclobutyl-pyrrolidin-1-yl)-1-(6-(3-(dimethyl-amino)azetidin-1-yl)pyridin-3-yl)-4-oxo-1,4-dihydro-quinoline-3-carboxylic acido-quinoline-3-carboxylic acid]
≥ 6.00	CC(C)C1C[C@H](COc2ncccc2Cl)N(c2cc3c(cc2Cl)c(=O)c(C(=O)O)cn3-c2ccc(N3CC(N(C)C)C3)nc2)C1 (mixture of isomers) [Compound 223, Rac-6-chloro-7-((2R)-2-(((3-chloropyridin-2-yl)oxy)methyl)-4-isopropyl-pyrrolidin-1-yl)-1-(6-(3-(dimethyl-amino)azetidin-1-yl)pyridin-3-yl)-4-oxo-1,4-dihydro-quinoline-3-carboxylic acid]
≥ 6.00	COc1ccc(Cl)c(OC[C@H]2CC(c3ccc(O)nc3)CN2c2cc3c(cc2F)c(=O)c(C(=O)O)cn3-c2ccc(N3CC(N(C)C)C3)nc2)n1 (mixture of isomers) [Compound 224, Formic acid compound with rac-7-((2R)-2-(((3-chloro-6-methoxy-pyridin-2-yl)oxy)methyl)-4-(6-hydroxy-pyridin-3-yl)pyrrolidin-1-yl)-1-(6-(3-(dimethyl-amino)azetidin-1-yl)pyridin-3-yl)-6-fluoro-4-oxo-1,4-dihydro-quinoline-3-carboxylic acid (1:1)]
≥ 6.00	COc1ccc(Cl)c(OC[C@H]2CC(c3ccc(O)nc3)CN2c2cc3c(cc2Cl)c(=O)c(C(=O)O)cn3-c2ccc(N3CC(N(C)C)C3)nc2)n1 (mixture of isomers) [Compound 225, Rac-6-chloro-7-((2R)-2-(((3-chloro-6-methoxy-pyridin-2-yl)oxy)methyl)-4-(6-hydroxy-pyridin-3-yl)pyrrolidin-1-yl)-1-(6-(3-(dimethyl-amino)azetidin-1-yl)pyridin-3-yl)-4-oxo-1,4-dihydro-quinoline-3-carboxylic acid]
≥ 6.00	COc1ccc(Cl)c(OC[C@H]2CC(C(C)C)CN2c2cc3c(cc2Cl)c(=O)c(C(=O)O)cn3-c2ccc(N3CC(N(C)C)C3)nc2)n1 (mixture of isomers) [Compound 227, Rac-6-chloro-7-((2R)-2-(((3-chloro-6-(11-oxidaneyl)pyridin-2-yl)oxy)methyl)-4-isopropyl-pyrrolidin-1-yl)-1-(6-(3-(dimethyl-amino)azetidin-1-yl)pyridin-3-yl)-4-oxo-1,4-dihydro-quinoline-3-carboxylic acid]
≥ 6.00	COc1ccc(Cl)c(OC[C@H]2C[C@@H]3C[C@@H]3N2c2cc3c(cc2F)c(=O)c(C(=O)O)cn3-c2ccnc(N)c2)n1 (racemic) [Compound 230, Rac-1-(2-aminopyridin-4-yl)-7-((1R,3S,5R)-3-(((3-chloro-6-methoxy-pyridin-2-yl)oxy)methyl)-2-azabicyclo [3.1.0]hexan-2-yl)-6-fluoro-4-oxo-1,4-dihydro-quinoline-3-carboxylic acid]
≥ 6.00	COc1ccc(Cl)c(OC[C@H]2C[C@@H]3C[C@@H]3N2c2cc3c(cc2Cl)c(=O)c(C(=O)O)cn3-c2ccnc(N)c2)n1 (racemic) [Compound 231, Rac-1-(2-aminopyridin-4-yl)-6-chloro-7-((1R,3S,5R)-3-(((3-chloro-6-methoxy-pyridin-2-yl)oxy)methyl)-2-azabicyclo [3.1.0]hexan-2-yl)-4-oxo-1,4-dihydro-quinoline-3-carboxylic acid]
≥ 6.00	COc1ccc(Cl)c(OC[C@H]2C[C@H]3C[C@H]3N2c2cc3c(cc2F)c(=O)c(C(=O)O)cn3-c2ccc(N3CC(N(C)C)C3)nc2)n1 (racemic) [Compound 234, Rac-7-((1R,3R,5R)-3-(((3-chloro-6-methoxy-pyridin-2-yl)oxy)methyl)-2-azabicyclo [3.1.0]hexan-2-yl)-1-(6-(3-(dimethyl-amino)azetidin-1-yl)pyridin-3-yl)-6-fluoro-4-oxo-1,4-dihydro-quinoline-3-carboxylic acid]
